Experimental data reported in patent US20080275215A1, “Fluorescein-Based Compounds And Their Use For Peptide Synthesis” (COMMISSARIAT A L'ENERGIE ATOMIQUE, priority 2005, published 2008).

Tests used:
Type in all cases: physicochemical
[1] = Stability of 2'-ester toward alkaline hydrolysis; details: several hours in aqueous pH 9.8 buffer
From the text: This is explained by the absence of ionic equilibrium in 3-O-alkyl fluorescein derivatives trapped in a tautomeric quinoid form by 2′-esterification. The stability of 2′-ester toward an alkaline hydrolysis was also checked by following the absorbance and fluorescence spectra.

[2] = Fluorescence emission spectra and fluorescence quantum yield; details: for fluorescence emission λmax: 50 mM sodium tetraborate buffer pH 9.8; for fluorescence quantum yield φ: alkaline fluorescein as reference
Method: (§1) Standard UV-visible and fluorescence spectra were recorded in 50 mM sodium tetraborate buffer pH 9.8 at 0.5-10 μM fluorescent compounds concentration. The fluorescence quantum yield of the fluorescent compounds was determined as described by Adamczyk et al. (previously cited) using alkaline solution of fluorescein as a reference (φ=0.92) (Lohse et al.; Adamczyk et al.; Klonis et al. and Martin et al., all previously cited).

[3] = Dye photostability (photobleaching) study under fluorescence microscope; details: after 6 min of irradiation
Method: Super-Teflon glass slides (VWR International) carrying 40 circular wells of 2 mm diameter, separated by 30 μm-thick Teflon coating were used in dye photostability study. A well was filled with 1 μl of 5 mM fluorescein compounds k) (dye 15) or 1) (dye 16) solution in 50 mM sodium tetraborate buffer pH 9.8 and was enclosed with a coverslip.
The entire well volume was irradiated under the microscope with standard “fluorescein” filters set. The intensity delivered by the source on the surface of the slide was measured with a COHERENT LaserCheck probe, and found to be ˜6 mW/cm^2 at 488 nm. Well images were recorded regularly with IMSTAR software and mean fluorescence intensity was calculated.
For comparison of the photostability of fluorophores under the condition of signal acquisition with fluorescent microscope, the sample was placed in a well on the surface of a glass slide that contains 40 circular wells of 2 mm diameter, separated by 30 μm-thick Teflon coating. The well was then enclosed with a coverslip producing a cylindrical sample chamber of ˜380 nl volume. […] The resulted light intensity at the chamber level was measured to be ˜6 mW/mm^2. At different times the fluorescence images of the well were taken and mean fluorescence intensity was calculated using IMSTAR software (Khomyakova et al., previously cited).

[4] = pH effect on fluorescence; details: range of pH 4.0-10.0; λexc 488 nm/λem 515 nm
Method: To measure the pH effect on fluorescence, 50 nM of fluorescent compounds k) (dye 15) or l) (dye 16) solution in 50 mM sodium tetraborate buffer (pH 9.8) was slowly titrated with HCl, aliquots were taken between pH 9.8 and 4, and fluorescence was measured at λexc 488 nm/λem 515 nm.

[5] = UV-visible absorbance spectra; details: for absorbance maximum (longer wavelength) / absorbance maximum (shorter wavelength): 50 mM sodium tetraborate buffer pH 9.8; for molar extinction coefficient: at 456 nm
Method: as §1

| changes in absorbance and fluorescence spectra (2'-ester alkaline hydrolysis) [1] | fluorescence emission λmax [2] | fluorescence quantum yield φ [2] | decrease in fluorescence [3] | pH-dependence of fluorescence and quantum yield [4] | absorbance maximum (longer wavelength) [5] | absorbance maximum (shorter wavelength) [5] | molar extinction coefficient [5] | SMILES |
| --- | --- | --- | --- | --- | --- | --- | --- | --- |
| No significant changes | 520 nm | 0.19 | ~10% | virtually pH-independent | 481 nm | 456 nm | 22000 L/mol/cm | CCOC(=O)c1cc(NC(C)=O)ccc1-c1c2ccc(=O)cc-2oc2cc(OCC(=O)O)ccc12 [k), 5-acetylamino-2-(6-carboxymethoxy-3-oxo-3H-xanthen-9-yl)-benzoic acid ethyl ester] |
| No significant changes | 520 nm | 0.18 | ~10% | virtually pH-independent | 481 nm | 456 nm | 23000 L/mol/cm | CCOC(=O)c1ccc(NC(C)=O)cc1-c1c2ccc(=O)cc-2oc2cc(OCC(=O)O)ccc12 [l), 4-acetylamino-2-(6-carboxymethoxy-3-oxo-3H-xanthen-9-yl)-benzoic acid ethyl ester] |
